Results published in patent US20230405002A1, “COMBINATIONS OF DIACYLGLYCEROL ACYLTRANSFERASE 2 INHIBITORS AND ACETYL-COA CARBOXYLASE INHIBITOR” (Pfizer Inc., priority 2020, published 2023).
Structures can show the parent of a compound that is named as a salt.

Columns and labels:
human DGAT2 (hDGAT2) = human DGAT2 (hDGAT2) (Homo sapiens (Human), UniProt Q96PD7); assay: In vitro DGAT2 assay, determination of IC50 values; format: biochemical; details: geometric mean; hDGAT2 membrane fraction
human liver microsomes = assay: Intrinsic clearance in human liver microsomes; details: human liver microsome assay, 1 μM

human DGAT2 (hDGAT2), sequence (Q96PD7 whole entry): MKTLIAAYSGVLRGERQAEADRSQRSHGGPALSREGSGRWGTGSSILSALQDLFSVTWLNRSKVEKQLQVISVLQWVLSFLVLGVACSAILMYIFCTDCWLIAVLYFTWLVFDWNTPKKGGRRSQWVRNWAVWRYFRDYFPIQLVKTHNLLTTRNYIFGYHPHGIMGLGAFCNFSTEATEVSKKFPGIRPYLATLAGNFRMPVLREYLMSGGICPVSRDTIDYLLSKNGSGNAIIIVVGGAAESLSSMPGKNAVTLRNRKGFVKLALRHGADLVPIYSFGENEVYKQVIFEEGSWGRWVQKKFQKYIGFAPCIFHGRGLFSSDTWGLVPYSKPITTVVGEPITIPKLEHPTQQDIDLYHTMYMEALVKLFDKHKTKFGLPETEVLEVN

Row | SMILES | IC50 (human DGAT2 (hDGAT2)) [nM] | CLint (+/− STD Dev) (human liver microsomes) [µL/min/mg]
1 | CCOc1cccnc1Oc1cncc(-c2ncc(C(=O)N[C@H]3CNCCC3(F)F)cn2)c1 (single isomer, unassigned) [Example 15, N-[(3S)-4,4-difluoropiperidin-3-yl]-2-{5-[(3-ethoxypyridin-2-yl)oxy]pyridin-3-yl}pyrimidine-5-carboxamide, trifluoroacetate salt or N-[(3R)-4,4-difluoropiperidin-3-yl]-2-{5-[(3-ethoxypyridin-2-yl)oxy]pyridin-3-yl}pyrimidine-5-carboxamide, trifluoroacetate salt] | 3300 | –
2 | CCOc1cccnc1Oc1cncc(-c2ncc(C(=O)N[C@H]3CNCC[C@H]3C)cn2)c1 (racemic) [Example 20, rac-2-{5-[(3-ethoxypyridin-2-yl)oxy]pyridin-3-yl}-N-[(3R,4R)-4-methylpiperidin-3-yl]pyrimidine-5-carboxamide, trifluoroacetate salt] | 2100 | –
3 | CCOc1cccnc1Oc1cncc(-c2ncc(C(=O)N[C@H]3CNCC[C@@H]3F)cn2)c1 [Example 12, 2-{5-[(3-ethoxypyridin-2-yl)oxy]pyridin-3-yl}-N-[(3S,4S)-4-fluoropiperidin-3-yl]pyrimidine-5-carboxamide, trifluoroacetate salt] | 590 | <7
4 | CCOc1cccnc1Oc1cncc(-c2ncc(C(=O)N[C@H]3CC[C@H](C(F)(F)F)NC3)cn2)c1 (racemic) [Example 9, rac-2-{5-[(3-ethoxypyridin-2-yl)oxy]pyridin-3-yl}-N-[(3R,6S)-6-(trifluoromethyl)piperidin-3-yl]pyrimidine-5-carboxamide or rac-2-{5-[(3-ethoxypyridin-2-yl)oxy]pyridin-3-yl}-N-[(3R,6R)-6-(trifluoromethyl)piperidin-3-yl]pyrimidine-5-carboxamide] | – | >290
5 | CCOc1cccnc1Oc1cncc(-c2ncc(C(=O)NC3CCCNC3C)cn2)c1 (mixture of isomers) [Example 23, 2-{5-[(3-ethoxypyridin-2-yl)oxy]pyridin-3-yl}-N-(2-methylpiperidin-3-yl)pyrimidine-5-carboxamide, trifluoroacetate salt, mixture of stereoisomers] | 14000 | –

Further compounds by falling IC50 (human DGAT2 (hDGAT2)), results first:

Row | IC50 (human DGAT2 (hDGAT2)) [nM] | CLint (+/− STD Dev) (human liver microsomes) [µL/min/mg] | SMILES
6 | 230 | – | CCOc1cccnc1Oc1cncc(-c2ncc(C(=O)NC3CNCC(F)(F)C3)cn2)c1 (stereo not shown) [Example 17, N-(5,5-difluoropiperidin-3-yl)-2-{5-[(3-ethoxypyridin-2-yl)oxy]pyridin-3-yl}pyrimidine-5-carboxamide]
7 | 110 | <7 | CCOc1cccnc1Oc1cncc(-c2ncc(C(=O)N[C@@H]3CNCC[C@H]3F)cn2)c1 [Example 5, 2-{5-[(3-Ethoxypyridin-2-yl)oxy]pyridin-3-yl}-N-[(3R,4R)-4-fluoropiperidin-3-yl]pyrimidine-5-carboxamide]
8 | 42 | – | CCOc1cccnc1Oc1cncc(-c2ncc(C(=O)N[C@H]3CNC[C@H](F)C3)cn2)c1 [Example 7, 2-{5-[(3-ethoxypyridin-2-yl)oxy]pyridin-3-yl}-N-[(3R,5R)-5-fluoropiperidin-3-yl]pyrimidine-5-carboxamide, trifluoroacetate salt]
